The record followed here is US20160257697A1, “THIOPHENE-SUBSTITUTED TETRACYCLIC COMPOUNDS AND METHODS OFUSE THEREOF FOR THE TREATMENT OF VIRAL DISEASES” (priority 2013, published 2016).

The subject of assay [1] is HCV replicon 1A. Nature of the assay: microbe, parasite or virus in culture. Type of assay: cell-based, Hepatitis C virus (HCV). The note with it: replicon 1A, Replicon Assay A. Here is the method: (§1) To measure cell-based anti-HCV activity of compounds of the present invention, two complimentary assays were employed using various replicons. In the first assay (“Replicon Assay A”), replicon cells were seeded at 2000 cells/well in 384-well 384-well flat bottom tissue culture treated clear bottom plate (Corning 3707) in the presence of the test compound. […] The final concentration of DMSO was 0.5%. Fetal bovine serum was 5%, in the assay media. Cells were harvested on day 3 by removing media and washing the cells with a suitable wash buffer. The cells are lysed with the addition of 1× Qiagen lysis buffer (Cat #1062731). The replicon RNA level was measured using real time PCR (TaqMan® EZ RT-PCR, Applied Biosystems 403028) with the following primers and probes: […]
(§2) Cyclophilin RNA was used as endogenous control and was amplified in the same reaction as NS5B (multiplex PCR). The real-time RT-PCR reactions were run on ABI PRISM 7900HT Sequence Detection System using the following program: 50° C. for 2 minutes, 60° C. for 30 minutes, 95° C. for 5 minutes, 40 cycles of 94° C. for 20 sec, 55° C. for 1 minutes.
(§3) The amount of HCV replicon RNA per cell is quantified using a linear regression curve for a known nanogram (ng) amount of HCV replicon total RNA. This is established by plotting the Cycle Threshold values (Ct) from the Neo probe and primer set versus the log (ng) for each HCV replicon total RNA standard. The amount of HCV RNA for each replicon sample is calculated by taking the sample's Ct value, minus the line intercept, divided by the slope of the line. Similarly, the amount of Cyclophilin mRNA per cell is also quantified using a linear regression curve for a known nanogram (ng) amount of HCV replicon total RNA. Again, this is established by plotting the Cycle Threshold values (Ct) from the Cyclophilin probe and primer set versus the log (ng) for each HCV replicon total RNA standard.
(§4) Data for replicons 1A, 1AY93H and 2B were obtained using Replicon Assay A and data for replicons 1AQ30D and 1B were obtained using Replicon Assay B.
(In antiviral work, replicon cells carry a viral genome segment that copies itself.)

In assay [2] the test system is HCV replicon 2B. As to the kind of experiment: microbe, parasite or virus in culture. The note with it: Replicon Assay A. Type of assay: cell-based, Hepatitis C virus (HCV). Here is the method:
as §1, §2, §3, §4

The mark [3] stands for this setting: Hepatitis C virus, read-out: 2B IC50, HCV replicon 2B.
Where [4] appears, read: read-out: 2B IC50, HCV replicon 2B.

Each structure is given as a SMILES string. pIC50: −log10 of the molar value. Like-named read-outs stand apart in the source and are kept apart here.

Turning to `[2H]C(C)(C)C(NC(=O)OC)C(=O)N1CCC[C@H]1c1ncc(-c2cc(F)c3c(c2)OC(c2ccc(C4CC4)s2)n2c-3cc3cc(-c4cnc([C@@H]5CCCN5C(=O)[C@@H](NC(=O)OC)C(C)C)[nH]4)ccc32)[nH]1` (single isomer, unassigned) [Compound 30], the negative-log IC50 (pIC50) (in general, the IC50 on a negative log10 scale, so that one unit is a factor of ten) in assay [1] is 10.29; in assay [2] (read-out: 2B IC50, replicon 2B), 7.48.
Consider `COC(=O)N[C@H](C(=O)N1CCC[C@H]1c1ncc(-c2cc(F)c3c(c2)OC(c2ccc(C4CC4(F)F)s2)n2c-3cc3cc(-c4cnc([C@@H]5CCCN5C(=O)[C@@H](NC(=O)OC)C(C)C)[nH]4)ccc32)[nH]1)C(C)C` (single isomer, unassigned) [Compound 116], for which, in assay [2] (read-out: 2B IC50, replicon 2B), the pIC50 is 8.73.
Same read-out and setting: the value for `COC(=O)N[C@H](C(=O)N1CCC[C@H]1c1ncc(-c2cc(F)c3c(c2)OC(c2ccc(C4CC4(F)F)s2)n2c-3cc3cc(-c4cnc([C@@H]5CCCN5C(=O)[C@@H](NC(=O)OC)C(C)C)[nH]4)ccc32)[nH]1)C(C)C` (single isomer, unassigned) [Compound 117] was 10.55.
Still for that read-out and setting: the value for `COC(=O)N[C@H](C(=O)N1CCC[C@H]1c1ncc(-c2cc(F)c3c(c2)OC(c2ccc(C4CC4(F)F)s2)n2c-3cc3cc(-c4cnc([C@@H]5CCCN5C(=O)[C@@H](NC(=O)OC)C(C)C)[nH]4)ccc32)[nH]1)C(C)C` (single isomer, unassigned) [Compound 119] was 10.14.
On to `CCc1ccc(C2Oc3cc(-c4cnc([C@@H]5CCCN5C(=O)C(NC(=O)OC)C5C[C@@H](C)O[C@@H](C)C5)[nH]4)cc(F)c3-c3cc4cc(-c5cnc([C@@H]6CCCN6C(=O)[C@@H](NC(=O)OC)C(C)C)[nH]5)ccc4n32)s1` (single isomer, unassigned) [Compound 155], for which the pIC50 in assay [1] was 9.78.
Take `CCc1ccc(C2Oc3cc(-c4cnc([C@@H]5CCCN5C(=O)C(NC(=O)OC)C5CCOC(C)(C)C5)[nH]4)cc(F)c3-c3cc4cc(-c5cnc([C@@H]6CCCN6C(=O)[C@@H](NC(=O)OC)C(C)C)[nH]5)ccc4n32)s1` (single isomer, unassigned) [Compound 161]: the pIC50 in assay [1] was 10.23.
In assay [1] (Hepatitis C virus), `COC(=O)NC(C(=O)N1CCC[C@H]1c1ncc(-c2ccc3c(c2)cc2n3C(c3ccc(C4CC4)s3)Oc3cc(-c4cnc([C@@H]5CCCN5C(=O)[C@@H](NC(=O)OC)C(C)C)[nH]4)cc(F)c3-2)[nH]1)C1CC2CCC(C1)O2` (single isomer, unassigned) [Compound 180] showed a pIC50 of 11.60.
Regarding `COC(=O)NC(C(=O)N1CCC[C@H]1c1ncc(-c2ccc3c(c2)cc2n3C(c3cc4c(s3)CCC4)Oc3cc(-c4cnc([C@@H]5CCCN5C(=O)[C@@H](NC(=O)OC)C(C)C)[nH]4)cc(F)c3-2)[nH]1)C1C[C@@H](C)O[C@@H](C)C1` (single isomer, unassigned) [Compound 204], in assay [2] (Hepatitis C virus, read-out: 2B IC50 (nM), replicon 2B), the half-maximal inhibitory concentration (IC50) – broadly, the concentration that gives 50% inhibition – turned out to be 0.26 nM.
In assay [1], `COC(=O)NC(C(=O)N1CCC[C@H]1c1ncc(-c2ccc3c(c2)cc2n3C(c3ccc(C(C)C)s3)Oc3cc(-c4cnc([C@@H]5CCCN5C(=O)[C@@H](NC(=O)OC)C(C)C)[nH]4)cc(F)c3-2)[nH]1)C1C[C@@H](C)O[C@@H](C)C1` (single isomer, unassigned) [Compound 233] had a negative logarithm of the IC50 (pIC50) of 10.18.
The same measure, in the same setting: the figure for `COC(=O)NC(C(=O)N1CCC[C@H]1c1ncc(-c2ccc3c(c2)cc2n3C(c3ccc(C4CC4)s3)Oc3cc(-c4cnc([C@@H]5CCCN5C(=O)[C@@H](NC(=O)OC)C(C)C)[nH]4)cc(F)c3-2)[nH]1)C1CN(C(=O)C2CC2)C1` (single isomer, unassigned) [Compound 268] is 10.35.
Still for that read-out and setting: the value for `COC(=O)NC(C(=O)N1CCC[C@H]1c1ncc(-c2ccc3c(c2)cc2n3C(c3ccc(C4CC4)s3)Oc3cc(-c4cnc([C@@H]5CCCN5C(=O)[C@@H](NC(=O)OC)C(C)C)[nH]4)cc(F)c3-2)[nH]1)C1CN(C(=O)C2CC2)C1` (single isomer, unassigned) [Compound 270] was 9.21.
With `COC(=O)NC(C(=O)N1[C@@H]2C[C@@H]2C[C@H]1c1ncc(-c2ccc3c(c2)cc2n3C(c3ccc(C(F)F)s3)Oc3cc(-c4cnc([C@@H]5CCCN5C(=O)[C@@H](NC(=O)OC)C(C)C)[nH]4)cc(F)c3-2)[nH]1)C1C[C@@H](C)O[C@@H](C)C1` (single isomer, unassigned) [Compound 285], the pIC50 in assay [2] (read-out: 2B IC50, replicon 2B) was 9.10.
With `CCc1ccc(C2Oc3cc(-c4cnc([C@@H]5CCCN5C(=O)C(NC(=O)OC)C5CCOC(C)(C)C5)[nH]4)cc(F)c3-c3cc4cc(-c5cnc([C@@H]6CCCN6C(=O)C(NC(=O)OC)C6CCOC(C)(C)C6)[nH]5)ccc4n32)s1` (single isomer, unassigned) [Compound 293], the pIC50 in assay [1] was less than 8.78.
On the same count and under the same terms, the figure for `CCc1ccc(C2Oc3cc(-c4cnc([C@@H]5CCCN5C(=O)C(NC(=O)OC)C5CCOC(C)(C)C5)[nH]4)cc(F)c3-c3cc4cc(-c5cnc([C@@H]6CCCN6C(=O)C(NC(=O)OC)C6CCOC(C)(C)C6)[nH]5)ccc4n32)s1` (single isomer, unassigned) [Compound 294] is less than 8.78.
Same read-out and setting: the value for `COC(=O)NC(C(=O)N1CCC[C@H]1c1ncc(-c2cc(F)c3c(c2)OC(c2ccc(C4CC4)s2)n2c-3cc3cc(-c4cnc([C@@H]5CCCN5C(=O)C(NC(=O)OC)C5C[C@@H](C)O[C@@H](C)C5)[nH]4)ccc32)[nH]1)C1C[C@@H](C)O[C@@H](C)C1` (single isomer, unassigned) [Compound 302] was less than 7.89.
Compound `COC(=O)N[C@H](C(=O)N1CCC[C@H]1c1ncc(-c2cc(F)c3c(c2)OC(c2cc4c(s2)C(C)(C)CC4)n2c-3cc3cc(-c4cnc([C@@H]5CCCN5C(=O)[C@@H](NC(=O)OC)C(C)C)[nH]4)ccc32)[nH]1)C(C)C` (single isomer, unassigned) [Compound 391] gave a pIC50 in assay [1] (Hepatitis C virus) of 11.46.
For the compound `COC(=O)NC(C(=O)N1CCC[C@H]1c1ncc(-c2ccc3c(c2)cc2n3C(c3ccc(CC(F)(F)F)s3)Oc3cc(-c4cnc([C@@H]5CCCN5C(=O)[C@@H](NC(=O)OC)C(C)C)[nH]4)cc(F)c3-2)[nH]1)C1CCOC(C)(C)C1` (single isomer, unassigned) [Compound 425], the pIC50 in assay [2] (setting [3]) is 10.96.
With `CCCc1ccc(C2Oc3cc(-c4cnc([C@@H]5CCCN5C(=O)[C@@H](NC(=O)OC)C(C)C)[nH]4)cc(F)c3-c3cc4cc(-c5cnc([C@@H]6C[C@H]7C[C@H]7N6C(=O)[C@@H](NC(=O)OC)C(C)C)[nH]5)ccc4n32)s1` (single isomer, unassigned) [Compound 561], the negative logarithm of the IC50 (pIC50) in assay [2] (setting [4]) is 9.64.
Same read-out and setting: the value for `CCCc1ccc(C2Oc3cc(-c4cnc([C@@H]5CCCN5C(=O)[C@@H](NC(=O)OC)C(C)C)[nH]4)cc(F)c3-c3cc4cc(-c5cnc([C@@H]6C[C@H]7C[C@H]7N6C(=O)[C@@H](NC(=O)OC)C(C)C)[nH]5)ccc4n32)s1` (single isomer, unassigned) [Compound 562] was 9.12.
For the compound `COC(=O)NC(C(=O)N1CCC[C@H]1c1ncc(-c2ccc3c(c2)cc2n3C(c3ccc(C4CC4)s3)Oc3cc(-c4cnc([C@@H]5CCCN5C(=O)[C@@H](NC(=O)OC)C(C)C)[nH]4)cc(C)c3-2)[nH]1)C1CCOC(C)(C)C1` (single isomer, unassigned) [Compound 565], in assay [2] (setting [3]), the pIC50 is 9.77.
For the compound `CCCc1ccc(C2Oc3cc(-c4cnc([C@@H]5CCCN5C(=O)[C@@H](NC(=O)OC)C(C)C)[nH]4)cc(F)c3-c3cc4cc(-c5cnc([C@@H]6CCCN6C(=O)C(NC(=O)OC)C6CCOC(C)(C)C6)[nH]5)ccc4n32)s1` (single isomer, unassigned) [Compound 566], the pIC50 in assay [2] (setting [4]) is 9.51.
Same read-out and setting: the figure for `CCCc1ccc(C2Oc3cc(-c4cnc([C@@H]5CCCN5C(=O)[C@@H](NC(=O)OC)C(C)C)[nH]4)cc(F)c3-c3cc4cc(-c5cnc([C@@H]6CCCN6C(=O)C(NC(=O)OC)C6CCOC(C)(C)C6)[nH]5)ccc4n32)s1` (single isomer, unassigned) [Compound 567] is 10.96; for `C=C(C)C1Oc2cc(-c3cnc([C@@H]4CCCN4C(=O)[C@@H](N)C(C)C)[nH]3)cc(F)c2-c2cc3cc(-c4cnc([C@@H]5C[C@H]6C[C@H]6N5C(C)=O)[nH]4)ccc3n21` (single isomer, unassigned) [Compound 571] it is 10.06.
Still for that read-out and setting: the value for `C=C(C)C1Oc2cc(-c3cnc([C@@H]4CCCN4C(=O)[C@@H](N)C(C)C)[nH]3)cc(F)c2-c2cc3cc(-c4cnc([C@@H]5C[C@H]6C[C@H]6N5C(C)=O)[nH]4)ccc3n21` (single isomer, unassigned) [Compound 572] was 10.51.
The same measure, in the same setting: the value for `COC(=O)NC(C(=O)N1[C@@H]2C[C@@H]2C[C@H]1c1ncc(-c2ccc3c(c2)cc2n3C(c3cc4ccccc4s3)Oc3cc(-c4cnc([C@@H]5CCCN5C(=O)[C@@H](NC(=O)OC)C(C)C)[nH]4)cc(F)c3-2)[nH]1)C1C[C@@H](C)O[C@@H](C)C1` (single isomer, unassigned) [Compound 646] was 9.76.
